# Earlier results in patent US8173626B2, “Methods, dosing regimens and medications using anti-progestational agents for the treatment of disorders” (Danco Laboratories LLC, priority 2006, dated 2012).
# Like-named read-outs stand apart in the source and are kept apart here.
# Key:
# glucocorticoid receptors = biological target: T1, glucocorticoid receptors (Homo sapiens, UniProt P04150); details: cited from earlier work
# T1 sequence (P04150 1-777): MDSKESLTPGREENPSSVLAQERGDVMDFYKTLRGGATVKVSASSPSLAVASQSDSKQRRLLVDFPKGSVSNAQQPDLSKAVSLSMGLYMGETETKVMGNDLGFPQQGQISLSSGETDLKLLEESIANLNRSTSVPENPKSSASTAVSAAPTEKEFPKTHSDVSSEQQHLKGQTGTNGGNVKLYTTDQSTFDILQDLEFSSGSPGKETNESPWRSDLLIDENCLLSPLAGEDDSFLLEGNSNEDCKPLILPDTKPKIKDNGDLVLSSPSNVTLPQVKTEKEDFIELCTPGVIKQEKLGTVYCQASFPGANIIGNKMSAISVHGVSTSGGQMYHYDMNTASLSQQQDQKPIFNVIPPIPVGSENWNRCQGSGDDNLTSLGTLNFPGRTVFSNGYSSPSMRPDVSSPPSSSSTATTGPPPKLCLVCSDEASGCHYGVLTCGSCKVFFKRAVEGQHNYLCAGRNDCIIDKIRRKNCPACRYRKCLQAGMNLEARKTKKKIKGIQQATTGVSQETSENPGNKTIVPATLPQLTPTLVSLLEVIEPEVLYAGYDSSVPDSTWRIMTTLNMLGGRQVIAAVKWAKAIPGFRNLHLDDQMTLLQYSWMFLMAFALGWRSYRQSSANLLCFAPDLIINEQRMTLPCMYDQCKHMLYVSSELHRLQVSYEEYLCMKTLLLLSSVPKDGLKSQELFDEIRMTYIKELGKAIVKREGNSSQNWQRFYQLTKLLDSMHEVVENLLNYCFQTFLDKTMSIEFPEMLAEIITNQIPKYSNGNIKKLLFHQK
# breakthrough bleeding = details: cited from earlier work; for subjects with irregular or prolonged bleeding: Newton et al.; for days of vaginal bleeding: Tyler et al.
compound,measurement,setting,value
CC(=O)c1ccc([C@H]2C[C@@]3(C)[C@@H](CC[C@@]3(O)C(F)(F)C(F)(F)F)[C@@H]3CCC4=CC(=O)CCC4=C32)cc1 [ZK230211],activity against glucocorticoid receptors,glucocorticoid receptors,substantially inactive
"(11β,17α)-(4-acetylphenyl)-17,23-epoxy-19,24-dinorchola-4,9,20-trien-3-one [Org 33628]",activity against glucocorticoid receptors,glucocorticoid receptors,substantially inactive
"CC(=O)O[C@]1(C(C)=O)CC[C@H]2[C@@H]3C[C@H](C)C4=CC(=O)CC[C@]4(C)[C@H]3CC[C@@]21C [DMPA, depo-medroxyprogesterone acetate]",subjects with irregular or prolonged bleeding,breakthrough bleeding; 9-12th month of use,34%
same,days of vaginal bleeding,breakthrough bleeding; between the first and second injection,around 30 % of days
same,days of vaginal bleeding,breakthrough bleeding; between the second and third injection,~20 % of days
same,subjects with irregular or prolonged bleeding,breakthrough bleeding; first 3 months of DMPA,90%
same,discontinuation rate due to breakthrough bleeding,"breakthrough bleeding; first year of use, Toppozada et al.",≤ 40%
"C[C@H]1CC2=CC(=O)CCC2=C2[C@@H]1[C@@H]1CC[C@@]3(CCCO3)[C@@]1(C)C[C@@H]2c1ccc(N(C)C)cc1 [Org 31806, (7β,11β,17β)-11-(4-NMe2-phenyl)-7-Me-4′,5′-dihydrospiro(oestra-4,9-diene-17,2′(3′H)-furan)-3-one]",activity against glucocorticoid receptors,glucocorticoid receptors,substantially inactive
"C[C@@H]1C[C@@H]2C(=C3CCC(=O)C=C31)[C@@H](c1ccc(N(C)C)cc1)C[C@@]1(C)[C@H]2CC[C@@]12CCCO2 [Org 31710, (6α,11β,17β)-11-(4-NMe2-phenyl)-6-Me-4′,5′-dihydrospiro[oestra-4,9-diene-17,2(3′H)-furan]-3-one]",activity against glucocorticoid receptors,glucocorticoid receptors,substantially inactive
